Data as given in US5849753A, “Pyridyl imidazole derivatives and processes for the preparation thereof” (Korea Research Institute of Chemical Technology, priority 1994, dated 1998).

What was measured:
[1] = test system: furosemide-administered dogs; assay: Duration of action in furosemide-administered dogs; assay type: in vivo, dog; settings: 0.33 mg, per os
Procedure: (§1) The test dogs were anesthetized with 30 mg/kg of pentobarbital sodium by intravenous injection and the left femoral artery and femoral vein were separated carefully. Silicone catheter, specially prepared and filled with saline treated with heparin(1,000 IU/ml), was cannulated into the blood vessels. After the surgery, the dogs were constrained to measure their blood pressure continuously with Gould 2000 physiograph adapted to a Grass P23 XL pressure transducer; and their heart rates were monitored with ECG/Biotacho amplifier. The dogs were tested at least 2 days after the surgery.
10 mg/kg of furosemide was injected intramuscularly 18 hours(in case of intravenous injection, 2 hours) before the beginning of the test (administration of the test compound) to improve the activity of renin in blood plasma. After the injection of furosemide, neither food nor water was provided. […] The blood pressure and heart rate were measured up to 8 hours after the administration of each test compound.
The compound of Example 8 and the Merck compound were administered orally to the furosemide-administrated dogs as in test 3(i), and blood pressure lowering effect was measured with time.

[2] = test system: renal hypertensive rats; assay: Duration of action in renal hypertensive rats; assay type: in vivo, male Sprague-Dawley rats; settings: 3 mg/kg, oral
Excerpt: (§2) To induce renal hypertension, left renal artery of 4 week-old male Sprague-Dawley rats(from The Korea Research Institute of Chemical Technology) was ligated. The rats were anesthetized with ether and the surgical region on the left abdomen of the rat was shaved, disinfected, and then incised about 1 cm vertically. The renal artery near abdominal aorta was isolated carefully from surrounding tissues and veins, and then ligated completely with a suture(4/0 sterile surgical silk). The muscular strata and skin of the surgical area were sutured with a suture(4/0 sterile surgical silk). The surgical region was disinfected to prevent infection and thereafter, 200 to 250 mg/Kg/day of cephazolin sodium was injected intramuscularly for 2 days. 6 to 8 days after the ligation, rats showing systolic pressure of more than 180 mmHg were selected for renal hypertension test. The blood pressure was determined by a tail-cuff method from the tail under unanesthetized condition(Gerold, M. et al., Arzneimittrel-Forsch, 18, 1285(1968)).
(§3) Each of the compounds to be tested was administered intravenously or orally into the renal hypertensive rat. The blood pressure of the rats was determined by direct method(Chiu, A. T. et al., J. Pharmacol. Exp. Ther. 250, 867(1989)) using a catheter. The rats were anesthetized with ketamine hydrochloride(125 mg/kg, i.p.) and a catheter was filled with saline and inserted into a carotid artery and carotid vein. The surgical area was sutured with a metal clip. The rats were relaxed at least 3 hours and the catheter in the carotid artery was adapted to an isotec pressure transducer to determine their blood pressure and heart rate with a physiograph(Linearcorder WR3310). After the blood pressure was stabilized, the test compound was administered intravenously or orally. For intravenous administration, the administered volume and washing volume were 1.0 ml/Kg and 0.2 ml, respectively. The blood pressure and heart rate were measured in regular intervals up to 24 hours after the administration of the test compound and compared with those measured after the administration of the control compound Losartan.
The present(Example 28) and control(Merck) compounds were tested using the hypertensive rats of test 2(i). 1 mg or 3 mg/kg of each compound was administered orally and blood pressure lowering effect with time was determined to measure the duration of action of the compounds.

[3] = Metabolite analysis (enzyme digestion test); assay type: in vitro ADME, male rats; settings: rat liver microsome and NADPH, 1 hour, 37° C., HPLC
Procedure: Enzyme digestion test was executed in order to detect the metabolite of the test compound in vivo.
A liver microsome and NADPH system of male rats were added to each of the present compound(Example 8) and the control compound(Merck), and the mixture was incubated for 1 hour at 37° C. The resultant was extracted with methanol or dichloromethane, and, thereafter, the organic layer was evaporated to obtain a residue. The residue was analyzed using high pressure liquid chromatography.

[4] = test system: renal hypertensive rat; assay: Blood pressure lowering effect on oral administration to rats at several doses; assay type: in vivo, male Sprague-Dawley rats; settings: 3 mg/kg
Excerpt: as §2, §3
The test compound was dissolved in 0.05N KOH for intravenous administration and suspended in Tween 80 for oral administration.
(iii) Blood pressure lowering effect The present compounds, Losartan(Dup 753) and the Merck compound were administrated orally to rats in 10, 3, 1, 0.3 and 0.1 mg/kg under the same condition as in (ii) and the blood pressure lowering effect was determined.

[5] = test system: unanesthetized dogs; assay: Blood pressure lowering effect in unanesthetized dogs (furosemide treated); assay type: in vivo, dog; set-up: Maximum blood pressure lowering effect in a dog: unit not given here; settings: dog, oral
Procedure: A number of dogs were fed freely in a feeding room and those weighing 7 to 12 kg in good health were selected regardless of their gender.
as §1
10 mg/kg of furosemide was injected intramuscularly 18 hours(in case of intravenous injection, 2 hours) before the beginning of the test (administration of the test compound) to improve the activity of renin in blood plasma. After the injection of furosemide, neither food nor water was provided. The test compound was suspended in Tween 80 and administered in an amount of 20 mg/kg orally. The blood pressure and heart rate were measured up to 8 hours after the administration of each test compound.
The maximum blood pressure lowering effect of the present compounds and the control compounds were determined in different amounts of administration using the same method as […]

## CCc1nc2c(C)cc(C)nc2n1Cc1ccc(-c2ccccc2-c2nnn[nH]2)cc1 [Merck compound, reference compound]
[1]; 0 min
  blood pressure lowering effect with time: 0.0%
[1]; 10 min
  blood pressure lowering effect with time: -5.0%
[1]; 20 min
  blood pressure lowering effect with time: -12.2%
[1]; 30 min
  blood pressure lowering effect with time: -14.4%
[1]; 60 min
  blood pressure lowering effect with time: -20.1%
[1]; 90 min
  blood pressure lowering effect with time: -24.4%
[1]; 120 min
  blood pressure lowering effect with time: -19.1%
[1]; 150 min
  blood pressure lowering effect with time: -24.2%
[1]; 180 min
  blood pressure lowering effect with time: -18.9%
[1]; 210 min
  blood pressure lowering effect with time: -17.0%
[1]; 240 min
  blood pressure lowering effect with time: -17.0%
[1]; 270 min
  blood pressure lowering effect with time: -13.4%
[1]; 300 min
  blood pressure lowering effect with time: -14.9%
[1]; 330 min
  blood pressure lowering effect with time: -15.6%
[1]; 360 min
  blood pressure lowering effect with time: -15.6%
[1]; 390 min
  blood pressure lowering effect with time: -11.4%
[1]; 420 min
  blood pressure lowering effect with time: -10.7%
[1]; 450 min
  blood pressure lowering effect with time: -11.4%
[1]; 480 min
  blood pressure lowering effect with time: -13.8%
[2]; 0 min
  blood pressure lowering effect with time: 0%
[2]; 10 min
  blood pressure lowering effect with time: -15%
[2]; 20 min
  blood pressure lowering effect with time: -27%
[2]; 30 min
  blood pressure lowering effect with time: -28%
[2]; 60 min
  blood pressure lowering effect with time: -26%
[2]; 90 min
  blood pressure lowering effect with time: -28%
[2]; 120 min
  blood pressure lowering effect with time: -25%
[2]; 240 min
  blood pressure lowering effect with time: -40%
[2]; 360 min
  blood pressure lowering effect with time: -36%
[2]; 1320 min
  blood pressure lowering effect with time: -35%
[2]; 1440 min
  blood pressure lowering effect with time: -40%
[2]; time in minutes not given
  blood pressure lowered: -40%
[3]
  metabolite from the enzymatic digestion: has a metabolite
[4]
  blood pressure lowering effect: 40%
[5]; 0.1 mg/kg
  Maximum blood pressure lowering effect in a dog: 20
[5]; 0.3 mg/kg
  Maximum blood pressure lowering effect in a dog: 24
